This passage reports melting point results from a melting point compilation (Tetko et al.).

In turn, `CC(=O)C(=Cc1ccc(-c2ccccc2[N+](=O)[O-])o1)C(C)=O` displayed a melting point of 127 to 128 °C.
`CC(=O)N1C(=O)[C@@](O)([C@H]2c3ccccc3O[C@@H]2Cl)c2ccccc21`: the melting point stood at 133 °C.
Compound `Cc1cc([N+]([O-])=Nc2ccccc2)c(C(C)C)cc1[N+]([O-])=Nc1ccccc1` yielded a melting point of 127 °C.
For `CCOC(=O)CCC(N[P+]([O-])(OC)C(C)NC(=O)CCCCN1C(=O)c2ccccc2C1=O)C(=O)OCC` (stereo unspecified), the melting point came to 81 °C.
Take `FC(F)(F)c1ccc(Cl)c(C(F)(F)F)c1`: the melting point is -59 °C.
For `Brc1cc(Br)c(Oc2cc(Br)c(Br)cc2Br)c(Br)c1`, the melting point fell in the range of 131 to 132 °C.
The figure for `COc1ccc(CC#N)cc1F` is 48 °C; for `c1ccc2c(c1)[nH]c1cnccc12` it is 199 to 201 °C; for `OC1CCSCC1` it is 50 to 51 °C.
In the case of `c1cc2ccc3ccc4ccc5cccc6c(c1)c2c3c4c56`, the melting point was found to be 278 °C.
With `c1ccc(-n2ccnc2)cc1`, the melting point is 13 °C.
Regarding `CC(C)OC(=O)C(C)(C)Oc1ccc(C(=O)c2ccc(Cl)cc2)cc1`, the melting point was 80.5 °C.
`Nc1ccncc1Cl` returned a melting point of 51 °C.
As for `COC(=O)c1sc(N2CCCCC2)c(C#N)c1N`, the melting point lay in the range of 184 to 185 °C.
`O=C(O)CP(=O)(O)O` gave a melting point of 144 °C.
Turning to `ON=Cc1ccccc1O`, the melting point is 56 to 59 °C.
Turning to `O=C1CCC(=O)N1c1nnc(C(F)(F)F)s1`, the melting point came to 221 °C.
With `C#CC1(O)c2ccccc2-c2ccccc21`, the melting point was determined as 110 °C.
In turn, `Nc1ccc(OCCCCCN2C(=O)c3ccccc3C2=O)cc1` displayed a melting point of 113 °C.
Compound `NS(=O)(=O)c1cc(C(=O)O)c(Cl)cc1Cl` gave a melting point of 230 to 234 °C.
Take `C=O`: the melting point was -92 °C.
Compound `O=C(Cl)OCC1=Cc2ccccc2S1(=O)=O` yielded a melting point of 77 °C.
For `CC1Sc2ccc(Cl)cc2-c2nc(N)ncc21` (stereo unspecified), the melting point fell in the range of 181 to 183 °C.
`Cc1noc(-c2ccccc2)c1C=O` showed a melting point of 85 to 87 °C.
Under `OCC1CCN(c2ncccn2)CC1` stands 52 to 54 °C; under `COc1ccc(CCl)c(C)c1CCl`, 97 °C; under `COc1ccc(-n2c(SC)nc3ccccc3c2=O)cc1`, 154 to 156 °C.
`O=[N+]([O-])c1cccnc1Oc1cncc(Cl)c1` yielded a melting point of 104 to 105 °C.
As to `COc1cc2c(cc1OC)C(c1ccccc1Cl)N(C(C)=O)CC2` (stereo unspecified), the melting point was 186 to 188 °C.
As for `CCCOC(=O)c1cc(O)c(O)c(O)c1`, the melting point is 148 °C.
The compound `OCc1cc(CO)cc(OCc2cc(COc3cc(CO)cc(CO)c3)cc(COc3cc(CO)cc(CO)c3)c2)c1` gave a melting point of 144 °C.
Consider `C[C@]12CC[C@H]3[C@@H](CCC4=CC(=O)CC[C@@]43C)[C@@H]1CC[C@@H]2C(=O)O`, for which the melting point came to 254 °C.
`O=C(Cl)c1scc2c1OCCO2` registered a melting point of 75 to 76 °C.
`CCOCOC(=O)c1ccccc1Nc1c(Cl)ccc(C)c1Cl`: the melting point turned out to be 73.5 °C.
Compound `O=C(O)CCCCCCCCCCBr` showed a melting point of 57 °C.
As to `C=C1CCC2(O)C3Cc4ccc(O)c5c4C2(CCN3CC2CC2)C1O5` (stereo unspecified), the melting point stood at 189 °C.
`CN1C(=O)c2ccccc2C1OC(=O)c1ccccc1` (stereo unspecified) displayed a melting point of 93 °C.
With `CCOC(=O)c1c(NC(=O)CCl)sc2c1CCCC2`, the melting point lay within 115 to 117 °C.
`O=Cc1cc2c(cc1Cl)OCO2` returned a melting point of 116 °C.
In turn, `CC(=O)CCc1oc2ccc(I)cc2c1-c1ccc(C)o1` showed a melting point of 94 °C.
Consider `CCOC(=O)CSc1ncc(C(=O)OC)n1C`, for which the melting point fell in the range of 35 to 36 °C.
`O=C1c2ccccc2-c2ccc(Br)cc21` returned a melting point of 143 to 149 °C.
For the compound `C/C(=N\NC(N)=O)c1ccc(C)cc1`, the melting point was 204 °C.
Compound `Cc1c(C#N)[nH]c2ccccc12` registered a melting point of 102 to 104 °C.
The compound `O=Cc1cn(S(=O)(=O)c2ccccc2)c2ccccc12` displayed a melting point of 156 to 157 °C.
The compound `Nc1c(Cl)ncnc1Cl` yielded a melting point of 145 °C.
In turn, `O=C1C(=C2C=Cc3ccccc3N2)C(=O)c2ccccc21` came in with a melting point of 240 to 241 °C.
The compound `OCC(CO)(CO)NCCCNC(CO)(CO)CO` returned a melting point of 169 °C.
`Nc1n[nH]cc1Br` came in with a melting point of 133 to 135 °C.
The compound `O=C(c1ccc(O)cc1)c1ccccc1F` showed a melting point of 117 °C.
For the compound `CC(=O)C=C(C)N1CCCC1`, the melting point is 114 to 116 °C.
For `CCC(=O)Cl`, the melting point was -94 °C.
Take `Cn1nc(CCl)c2ccccc21`: the melting point was in the range of 62 to 63 °C.
Compound `Cc1nn(-c2ccccc2)nc1C(N)=O` displayed a melting point of 175 to 177 °C.
In turn, `Cc1cc(C)c(P(c2c(C)cc(C)cc2C)c2c(C)cc(C)cc2C)c(C)c1` displayed a melting point of 187 °C.
Under `O=C(O)c1cscc1C(=O)O` stands 227 to 231 °C; under `CCOCn1c(-c2ccc(Cl)cc2)c(C#N)c(Br)c1C(F)(F)F`, 101 °C.
In turn, `O=C(O)c1cccc(-c2cccnc2)c1` yielded a melting point of 202 to 206 °C.
For `COC(=O)C1=C(C)NC(=S)NC1c1cccc([N+](=O)[O-])c1` (stereo unspecified), the melting point turned out to be 247 °C.
For `C#Cc1ccc(OC)cc1`, the melting point lay within 28 to 30 °C.
Compound `Cc1ccc(S(=O)(=O)c2coc(S(N)(=O)=O)c2)cc1` registered a melting point of 185 °C.
The compound `O=C(O)C1CC(c2ccccc2)CCC1C(=O)c1ccccc1` (stereo unspecified) displayed a melting point of 184 to 187 °C.
Under `Cc1nc(/C(C#N)=C/c2ccc(N(C)C)cc2)sc1/N=N/c1ccc(F)cc1` stands 149 °C; under `CC(C)(C)OC(=O)N1CCN(Cc2cccc(N)c2)CC1`, 107 to 108 °C.
On to `O=S(=O)(Cl)c1ccccc1F`, for which the melting point came out at 30 °C.
Regarding `O=C1c2ccccc2S(=O)(=O)N1Br`, the melting point lay in the range of 160 to 170 °C.
The figure for `O=C(O)c1ccc(C(F)(F)F)nc1Cl` is 120 to 122 °C; for `COc1ccccc1C=C1C(=O)NN=C1c1c(O)c2ccccc2n(C)c1=O` it is 266 °C.
Under `C[C@]12CCC(=O)CC1CCC1=C2CC[C@]2(C)C(=O)CC[C@@H]12` (stereo partly specified) stands 148 °C; under `NC(=S)c1cccnc1`, 185 to 190 °C.
In the case of `O=C(O)CCC1CCCCCCCCCCC1=O` (stereo unspecified), the melting point was 88 to 90 °C.
With `OC(c1ccc(Cl)cc1)c1cc2ccccc2o1` (stereo unspecified), the melting point amounted to 48.5 °C.
As to `O=C(Nc1ccc([N+](=O)[O-])cc1)C(F)(F)C(F)(F)C(F)(F)C(F)(F)C(F)(F)C(F)(F)C(F)(F)C(F)(F)F`, the melting point was 119 °C.
`O=C(c1ccc2ccccc2c1)C(O)c1ccccc1` (stereo unspecified) displayed a melting point of 152 °C.
On to `O=C(O)Cc1ccc2ccccc2c1`, for which the melting point was found to be 142 °C.
For the compound `CC1CCC(C)(C(=O)NNc2ccccc2)C1(C)C` (stereo unspecified), the melting point worked out at 92 °C.

The term melting point denotes the temperature of the solid-liquid transition.
